Experimental data taken from article PMC9552147 (Nature Communications, 2022).
Several values for one entry are separate records, joined by “and”; a condition that tells them apart may be missing. Identical values can stand only once.

System: M. tuberculosis resistant mutant (lysS S491 insertion)
Type: cell-based, Mycobacterium tuberculosis

| SMILES | fold resistance of the resistant mutant strain compared to wild-type H37Rv (MIC) | Mutant (S491)MIC | Mutant (S491)MIC, Ave [µM] |
| --- | --- | --- | --- |
| NNC(=O)c1ccncc1 [isoniazid] | equivalent sensitivity |  |  |
| Nc1cc2c(c(F)n1)C(=O)N(C1CCCCC1)C2 [Compound 2] |  | 0.11 µM and 0.095 µM | 0.10 |
